This note sets out measurements from article PMC8179002, “Inhibitors of thiol-mediated uptake” (Chemical Science, 2020).

Values after ≈ are worked out from the molar mass of the structure shown. Read-outs that look alike come from different tables or passages of the source. Bridge positions count the residues as written; N and C are the ends. Peptide text beside a SMILES is read from it.

Data set [1] deals with A549 human lung alveolar basal epithelium cells overexpressing ACE2 and TMPRSS2. Conditions: Fig. S44.
In data set [2] the test system is cellular uptake of 2 in HeLa Kyoto cells. Description: cells. The data set is classed as cell-based.
The test system of data set [3] is cellular uptake of 1 in HeLa Kyoto cells. Description: cells. The data set is classed as cell-based. Conditions: for IC50: read-out: IC50, inhibition of cellular uptake of 1; for minimal effective concentration: read-out: MIC, inhibition of cellular uptake of 1; for MIC (concentration that causes ∼15% reduction of reporter uptake), against reporter 1: pre-incubation time not given (Fig. 2: 1 h pre-incubation, 30 min with reporter; some 15 min). Put shortly: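 HeLa Kyoto cells were pre-incubated with inhibitors at varying concentrations and times, washed, then given reporter 1 at 10 μM final for 30 min at 37°C; alternatively, inhibitors were kept during reporter exposure. Hoechst/PI staining and 10x high-content imaging gave mean intracellular fluorescence per cell and viability from PI-negative nuclei.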

For data set [4] the following is noted: trans to cis isomer 22; Fig. S46.
[5] abbreviates: HeLa, tpre 0.5 h, then tco 0.5 h co-incubation of inhibitor and 2 (10 µM).
The mark [6] stands for this setting: HeLa, tpre 1 h with inhibitor, removal, tinc 0.5 h with 2 (10 µM).
[7] abbreviates: HeLa Kyoto, 0.5 h, HeLa, tpre 0.5 h, then tco 0.5 h co-incubation of inhibitor and 1 (10 µM).
The mark [8] stands for this setting: HeLa Kyoto, 0.5 h, HeLa, tpre 0.5 h with inhibitor, removal, tinc 0.5 h with 1 (10 µM).
Where [9] appears, read: HeLa Kyoto, 0.5 h, HeLa, tpre 5.5 h with FBS, then tco 0.5 h co-incubation of inhibitor and 1 (10 µM).
[10] abbreviates: HeLa Kyoto, 0.5 h, HeLa, tpre 23.5 h with FBS, then tco 0.5 h co-incubation of inhibitor and 1 (10 µM).
Setting [11] is: HeLa Kyoto, 1 h, HeLa, tpre 1 h with inhibitor, removal, tinc 0.5 h with 1 (10 µM).
Setting [12] is: HeLa Kyoto, 2 h, HeLa, tpre 2 h with inhibitor, removal, tinc 0.5 h with 1 (10 µM).
Setting [13] is: HeLa Kyoto, 4 h, HeLa, tpre 4 h with inhibitor, removal, tinc 0.5 h with 1 (10 µM).
The mark [14] stands for this setting: HeLa Kyoto, HeLa, tpre 1 h with inhibitor, removal, tinc 0.5 h with 1 (10 µM).
Setting [15] is: HeLa Kyoto, HeLa, tpre 5.5 h with FBS, then tco 0.5 h co-incubation of inhibitor and 1 (10 µM).
The mark [16] stands for this setting: HeLa Kyoto, HeLa, tpre 23.5 h with FBS, then tco 0.5 h co-incubation of inhibitor and 1 (10 µM).
Where [17] appears, read: HeLa, tpre 4 h with inhibitor, removal, tinc 0.5 h with 2 (10 µM).
Where [18] appears, read: HeLa, tpre 1 h with inhibitor, removal, tinc 0.5 h with 1 (10 µM).
Setting [19] is: HeLa, tpre 2 h with inhibitor, removal, tinc 0.5 h with 1 (10 µM).

For the compound `CCN1C(=O)C2SSSSC1C(=O)N2CC(=O)O` (centres unmarked) [compound 3], in data set [1], the “Concentration at which toxicity was detected” value was 50 µM. Further, the IC50 is over 20 µM in data set [2] (HeLa Kyoto, 0.5 h, HeLa, tpre 0.5 h, then tco 0.5 h co-incubation of inhibitor and 2 (10 µM), read-out: IC50, inhibition of cellular uptake of 2); over 20 µM in data set [2] (HeLa Kyoto, HeLa, tpre 1 h with inhibitor, removal, tinc 0.5 h with 2 (10 µM), read-out: IC50, inhibition of cellular uptake of 2); over 100 µM in data set [2] (HeLa Kyoto, HeLa, tpre 6 h with FBS, removal, tinc 0.5 h with 2 (10 µM), read-out: IC50, inhibition of cellular uptake of 2); 2.7 ± 0.1 µM in data set [3] (setting [7]); 1.7 ± 0.2 µM in data set [3] (setting [8]); 1.3 ± 0.2 µM in data set [3] (setting [14]). Also, the IC50 in data set [3] (HeLa Kyoto, HeLa, tpre 2 h with inhibitor, removal, tinc 0.5 h with 1 (10 µM)) is 2.7 ± 0.6 µM; in data set [3] (HeLa Kyoto, HeLa, tpre 4 h with inhibitor, removal, tinc 0.5 h with 1 (10 µM)), 8.2 ± 3.2 µM; in data set [3] (setting [15]) it was 9.6 ± 1.2 µM; in data set [3] (setting [16]), over 50 µM. The “MIC, inhibition of cellular uptake of 2” value in data set [2] (setting [5]) is given as 17 µM; in data set [2] (setting [6]) it was over 20 µM; in data set [2] (HeLa, tpre 6 h with FBS, removal, tinc 0.5 h with 2 (10 µM)), 40 µM. Further, the minimal effective concentration was under 0.5 µM in data set [3] (setting [7]); under 0.1 µM in data set [3] (setting [8]); under 0.5 µM in data set [3] (setting [9]); 30 µM in data set [3] (setting [10]); under 0.1 µM in data set [3] (setting [11]); under 0.1 µM in data set [3] (setting [12]). Further, the minimal effective concentration in data set [3] (setting [13]) is under 0.1 µM. In addition, the “MIC (concentration that causes ∼15% reduction of reporter uptake), against reporter 1” value in data set [3] (HeLa) was under 0.1 µM.
As to `O=S1(=O)C[C@H](O)[C@H](O)CS1` [compound 16], in data set [1], the “Concentration at which toxicity was detected” value came to 500 µM. The IC50 in data set [2] (HeLa Kyoto, read-out: IC50, inhibition of cellular uptake of 2, HeLa, tpre 4 h with inhibitor, removal, tinc 0.5 h with 2 (10 µM)) is 183 ± 18 µM; in data set [3] (setting [14]), over 1000 µM; in data set [3] (setting [15]), 150 ± 30 µM; in data set [3] (setting [16]) it was 860 ± 60 µM. The “MIC against reporter 2” value in data set [2] (HeLa, longer pre-incubation (Fig. 2: 4 h pre-incubation)) was about 20 µM (≈ 3.68 µg/mL). In addition, the “MIC, inhibition of cellular uptake of 2” value in data set [2] (setting [17]) was found to be 20 µM. For the same compound, the results for the minimal effective concentration in data set [3] (setting [9]), in data set [3] (setting [10]) and in data set [3] (setting [11]) were 10 µM, 150 µM and 200 µM, respectively.
On to `[O-][S+]1CC(O)C(O)CS1` (centres unmarked) [compound 17], for which the half-inhibitory concentration (IC50) in data set [3] (setting [7]) is over 500 µM; in data set [3] (setting [15]) it was over 1000 µM; in data set [3] (setting [16]) it was over 500 µM; in data set [3] (setting [18]), over 500 µM; in data set [3] (setting [19]) it was over 500 µM; in data set [3] (HeLa, tpre 4 h with inhibitor, removal, tinc 0.5 h with 1 (10 µM)) it was over 500 µM. Moreover, the minimal effective concentration was 100 µM in data set [3] (setting [7]); 250 µM in data set [3] (setting [9]); 150 µM in data set [3] (setting [10]); 300 µM in data set [3] (setting [12]); 250 µM in data set [3] (setting [13]); 250 µM in data set [3] (setting [18]). In addition, the Isomerization entry in data set [4] is “isomerized with time”.
`N[C@H]1CSSC[C@@H](C(=O)N[C@@H](CCC(=O)O)C(=O)O)NC(=O)CNC1=O` [compound 19] (H-CGCE-OH; disulfide 1-3): the “MIC, inhibition of cellular uptake of 2” value in data set [2] (setting [5]) is given as 5 µM; in data set [2] (setting [6]), over 1000 µM; in data set [2] (HeLa, tpre 1.5 h, then tco 0.5 h co-incubation of inhibitor and 2 (10 µM)), 7 µM; in data set [2] (HeLa, tpre 2 h with inhibitor, removal, tinc 0.5 h with 2 (10 µM)) it was over 1000 µM; in data set [2] (setting [17]) it was 900 µM. Moreover, the concentration for half-maximal inhibition (IC50) in data set [2] (HeLa, tpre 0.5 h, then tco 0.5 h co-incubation of inhibitor and 2 (10 µM), read-out: IC50, inhibition of cellular uptake of 2) is 46 ± 5 µM; in data set [2] (HeLa, tpre 1 h with inhibitor, removal, tinc 0.5 h with 2 (10 µM), read-out: IC50, inhibition of cellular uptake of 2), over 1000 µM; in data set [2] (HeLa, tpre 1.5 h, then tco 0.5 h co-incubation of inhibitor and 2 (10 µM), read-out: IC50, inhibition of cellular uptake of 2) it was 58 ± 10 µM; in data set [2] (HeLa, tpre 2 h with inhibitor, removal, tinc 0.5 h with 2 (10 µM), read-out: IC50, inhibition of cellular uptake of 2) it was over 1000 µM; in data set [2] (HeLa, tpre 4 h with inhibitor, removal, tinc 0.5 h with 2 (10 µM), read-out: IC50, inhibition of cellular uptake of 2), over 1000 µM; in data set [3] (HeLa, tpre 0.5 h with inhibitor, removal, tinc 0.5 h with 1 (10 µM)), over 2000 µM. The IC50 in data set [3] (setting [18]) and in data set [3] (setting [19]) was over 2000 µM each time. For the same compound, in data set [2] (HeLa, upon co-incubation), the “MIC against reporter 2” value is “≈ 5 μM”. In addition, the minimal effective concentration in data set [3] (1 h) and in data set [3] (2 h) was 400 µM in each case. Also, the “MIC (concentration that causes ∼15% reduction of reporter uptake), against reporter 1” value in data set [3] (HeLa) is “≈ 300 μM”.
